“And” between values parts separate entries of the source, which are not always exact repeats. Identical values can stand only once.
These compounds were tested against Replicase polyprotein 1ab (Severe acute respiratory syndrome coronavirus 2, UniProt P0DTD1) (assay: Functional biochemical assay to identify treatments for viral infectious disease that targets SARS-COV-2 nsp3 macrodomain, whereby the mechanism of action displaces an ADP-Ribose modified peptide from the binding site. Utilizing a time-resolved fluorescence method to measure binding by reading the emitted fluorescence intensity in two wavelengths.).

SMILES | IC50
O=C(Nc1cccc2c(C(=O)N[C@H]3c4ccccc4C[C@H]3C(=O)O)c[nH]c12)NC1CC1 | 7.83 µM and 6.58 µM
Cc1ncc(-c2cc3c(N[C@@H](c4ccc5c(c4)OCCO5)C(C)C)ncnc3[nH]2)n1C | 0.674 µM and 0.711 µM
CC(C)[C@@H](Nc1ncnc2[nH]ccc12)C(F)F | 15.2 µM
O=C(O)[C@H]1CCCCCN1C(=O)c1ncnc2[nH]ccc12 | > 124 µM
Cc1[nH]c2ncnc(NC(=O)Cc3cn[nH]c3)c2c1C | 75.2 µM and 99 µM
O=C(CCN(Cc1cccc(Cl)c1)C(=O)c1ccc(F)cn1)N1CCNCC1 | > 99.5 µM
Cn1ccc2c(C(=O)N[C@@H](CC(=O)O)c3ccc(Br)cc3)ccnc21 | 36.6 µM and 33.2 µM
O=C(Nc1ccc(C(=O)N[C@@H]2c3ccccc3C[C@@H]2C(=O)O)cc1)c1ccc(C(=O)NC2CC2)cc1 | > 99.5 µM
CC(C)[C@@H](Nc1ncnc2[nH]c(-c3cnn(C)c3)cc12)c1ccc2c(c1)S(=O)(=O)NCC2 | 0.071 µM and 0.057 µM
Cc1nnc(Nc2ccc(C(=O)N[C@H]3c4cccc(O)c4C[C@H]3C(=O)O)cc2)o1 | > 99.5 µM
Cc1cc(-c2cc3c(N[C@@H](c4ccc5c(c4)OCCO5)C(C)C)ncnc3[nH]2)c[nH]1 | 9.53 µM and 10.2 µM
CCn1ncc(-c2cc3c(N[C@@H](c4ccc5c(c4)OCCO5)C(C)C)ncnc3[nH]2)c1C | 0.905 µM and 1.06 µM
c1nc(N[C@@H](c2ccc3c(c2)OCCO3)C2CCC2)c2cc[nH]c2n1 | 5.2 µM and 6.52 µM
CC(C)[C@H](Nc1ncnc2[nH]c(-c3cnn(C)c3C#N)cc12)c1ccc2c(c1)OCCO2 | 0.238 µM and 0.901 µM
CC(C)[C@@H](Nc1ncnc2[nH]c(C3=CCOC3)cc12)c1ccc2c(c1)OCCO2 | 0.421 µM and 0.563 µM
O=C(Nc1cccc2c(C(=O)N[C@@H](CO)c3ccc4c(c3)OCCO4)c[nH]c12)NC1CC1 | > 99.5 µM
Cc1nnc(Nc2ccc(C(=O)N[C@@H]3c4cccc(O)c4C[C@H]3C(=O)O)cc2)o1 | 25.3 µM and 26 µM
CCNC(=O)c1cc2c(N[C@@H](c3ccc4c(c3)CCN4C(=O)C3CC3)C(C)C)ncnc2[nH]1 | 24.6 µM
CC(C)[C@@H](Nc1ncnc2[nH]c(C(=O)N[C@H]3[C@@H]4CN(C)C[C@@H]43)cc12)c1ccc2c(c1)OCCO2 | 1.1 µM and 2.06 µM
C[C@@H](Nc1ncnc2[nH]ccc12)[C@@H]1CCCCO1 | > 99.5 µM
Brc1ccc(-n2nnnc2Sc2ncnc3[nH]ccc23)cc1 | > 124 µM
COc1ccc2c(c1)CCN(c1ncnc3[nH]ccc13)[C@H]2C(C)C | 14.2 µM and 12 µM
Cc1n[nH]c(C)c1-c1cc2c(N[C@@H](c3ccc4c(c3)OCCO4)C(C)C)ncnc2[nH]1 | 31.7 µM
CC(C)[C@@H](Nc1ncnc2[nH]c(-c3ccc(S(C)(=O)=O)nc3)cc12)c1ccc2c(c1)S(=O)(=O)CCC2 | 0.049 µM and 0.054 µM and 0.094 µM and 0.06 µM and 0.069 µM

SMILES | IC50
CC(C)[C@@H](Nc1ncnc2[nH]c(C(=O)NCC3(C#N)CC3)cc12)c1ccc2c(c1)OCCO2 | 1.09 µM and 2.64 µM
O=C(O)C[C@@H](NC(=O)c1ccc(NC(=O)NC2CC2)cc1)c1cccc(C(F)F)c1 | 76.4 µM and 72.3 µM
CC(C)[C@@H](Nc1ncnc2[nH]c(-c3ccn4cnnc4c3)cc12)c1ccc2c(c1)S(=O)(=O)CCC2 | 0.093 µM and 0.073 µM and 0.126 µM
CC(C)[C@@H](Nc1ncnc2[nH]c(-c3ccnn3C)cc12)c1ccc2c(c1)OCCO2 | 0.699 µM and 0.883 µM and 0.832 µM
CC(C)[C@@H](Nc1ncnc2[nH]ccc12)c1ccc2cn[nH]c2c1 | > 99.5 µM
CC(C)[C@@H](Oc1ncnc2[nH]ccc12)c1ccc2c(c1)OCCO2 | > 99.5 µM
CC(C)[C@@H](Nc1ncnc2[nH]c(C3=CCOC3)cc12)c1ccc2c(c1)S(=O)(=O)CCC2 | 0.082 µM and 0.114 µM and 0.244 µM
CC(C)[C@@H](Nc1ncnc2[nH]c(-c3cn(C)nc3C#N)cc12)c1ccc2c(c1)OCCO2 | 0.871 µM and 0.843 µM
Cn1nc(C(=O)O)cc1C(=O)N1CCC(c2ccn3ncc(C(=O)N4CCCCC4)c3c2)CC1 | > 99.5 µM
CN(C)c1ccc(C(=O)N[C@@H](CC(=O)O)c2ccc(Br)cc2)nc1 | > 99.5 µM
CC(C)[C@@H](Nc1ncnc2ccccc12)c1ccc2c(c1)OCCO2 | 58.3 µM and 59.9 µM
CNc1ncnc(N[C@H](c2ccc3c(c2)S(=O)(=O)CCC3)C(C)C)c1Cl | > 99.5 µM
Cc1coc(-c2cc3c(N[C@@H](c4ccc5c(c4)OCCO5)C(C)C)ncnc3[nH]2)c1 | > 99.5 µM
Cc1ccc2snc(C(=O)N(C)CC[C@@H](Nc3ncnc4[nH]ccc34)C(C)C)c2c1 | > 99.5 µM
OC[C@@]1(Cc2ccc(F)cc2)CCN(c2ncnc3[nH]ccc23)C1 | > 99.5 µM
C[C@@H](C(=O)O)[C@@H](NC(=O)c1ncnc2[nH]ccc12)c1ccc(Br)cc1 | 0.808 µM and 0.532 µM
CC(C)[C@@H](Nc1ncnc2[nH]ccc12)c1ccc2c(c1)C(=O)NCC2 | 2.25 µM and 2.44 µM
CC(C)[C@@H](Nc1nc(N(C)C)nc2[nH]ccc12)c1ccc2c(c1)OCCO2 | > 99.5 µM
Cc1cc(CNC(=O)c2cc3c(N[C@@H](c4ccc5c(c4)OCCO5)C(C)C)ncnc3[nH]2)[nH]n1 | 1.2 µM
c1nc(N2CCC[C@@H]2c2ccc3c(c2)OCCO3)c2cc[nH]c2n1 | > 99.5 µM
CC(C)[C@@H](Nc1ncnc2[nH]ccc12)c1ccc2c(c1)OCC(=O)N2 | 27.2 µM and 24.2 µM
CCc1coc(Nc2ccc([C@@H](CC(=O)O)NC(=O)c3c[nH]c4ncncc34)cc2)n1 | 70.9 µM and 76.1 µM
O=C(O)[C@H]1C[C@H](O)CN1c1ncnc2[nH]ccc12 | > 99.5 µM
CNC(=O)c1c[nH]c2ncnc(N[C@@H](c3ccc4c(c3)NC(=O)CO4)C(C)C)c12 | 0.306 µM

SMILES | IC50
CC(C)[C@@H](Nc1ncnc2[nH]c(-c3ccn(C)n3)cc12)c1ccc2c(c1)OCCO2 | 0.972 µM and 1.02 µM
N#CC[C@@H](NC(=O)c1ncnc2[nH]ccc12)c1ccc(Br)cc1 | > 99.5 µM
O=C(O)[C@@H](CC(F)F)Nc1ncnc2[nH]ccc12 | 80.7 µM and 94.4 µM
COC(=O)c1c[nH]c(-c2cc(N[C@@H](c3ccc4c(c3)OCCO4)C(C)C)ncn2)c1 | > 99.5 µM
CC(C)[C@@H](Nc1ncnc2[nH]ccc12)c1ccc2c(c1)[S+]([O-])CCO2 (some centres undefined) | 0.604 µM and 0.628 µM
O=C(Nc1cccc2c(C(=O)Nc3ccccc3C(=O)O)c[nH]c12)NC1CC1 | 19.9 µM and 20 µM
CC(C)[C@@H](Nc1ncnc2[nH]ccc12)c1ccc(F)c(C#N)c1 | 4.15 µM and 16.6 µM
CCNC(=O)c1cc2c(N[C@H](c3ccccc3N(C)S(C)(=O)=O)C(C)C)ncnc2[nH]1 | > 99.5 µM
CC(C)[C@@H](Nc1ncnc2[nH]c(-c3ccoc3)cc12)c1ccc2c(c1)OCCO2 | 1.52 µM and 1.64 µM
CC(C)[C@@H](Nc1ncnc2[nH]c(-c3ccnn3C(C)C)cc12)c1ccc2c(c1)OCCO2 | 3.02 µM and 2.94 µM
CCNC(=O)c1cc2c(N[C@@H](c3ccc4c(c3)S(=O)(=O)CCC4)C(C)C)ncnc2[nH]1 | 0.056 µM and 0.1 µM and 0.02 µM and 0.034 µM and 0.019 µM and 0.033 µM and 0.053 µM and 0.032 µM and 0.042 µM
O=C(Nc1cccc2c(C(=O)Nc3cc4c(cc3CO)OCCO4)c[nH]c12)NC1CC1 | > 99.5 µM
CC(C)[C@@H](Nc1ncnc2[nH]c(C(=O)NCCc3c[nH]nn3)cc12)c1ccc2c(c1)OCCO2 | 1.29 µM and 0.947 µM
CC(C)[C@H](Nc1cc(-n2ccnn2)ncn1)c1ccc2c(c1)S(=O)(=O)CCC2 | > 99.5 µM
CC(C)[C@H](Nc1ncncc1N1CCNCC1)c1ccc2c(c1)S(=O)(=O)CCC2 | > 99.5 µM
Cc1[nH]c2ncnc(NC(=O)[C@@H]3CCCc4ncccc43)c2c1C | > 99.5 µM
CC(C)[C@@H](CCN(C)C(=O)c1cccc2cc(F)ccc12)Nc1ncnc2[nH]ccc12 | > 99.5 µM
Cc1cc(NCc2cnc3c(c2)NC(=O)CO3)cnc1C | > 124 µM
NC(=O)c1ccc(S(=O)(=O)Nc2cnc3[nH]ccc3c2)cc1 | > 99.5 µM
CC(C)[C@@H](NCc1cccc2[nH]ccc12)c1ccc2c(c1)OCCO2 | > 99.5 µM
CC(C)[C@@H](Nc1ncnc2[nH]ccc12)c1ccc2c(c1)SCCO2 | 1.87 µM and 1.94 µM
COC[C@@H]1C[C@@H]1CNc1ccc([C@@H](CC(=O)O)NC(=O)c2ncnc3[nH]ccc23)cc1 | 44.5 µM and 43.9 µM
O=C(O)C[C@@H](NC(=O)c1ncnc2[nH]ccc12)c1ccc(NCC2C[C@@H](O)[C@@H](O)C2)cc1 (some centres undefined) | 25 µM and 27.5 µM
C=CCn1c(Sc2ncnc3[nH]ccc23)nc2sccc2c1=O | > 99.5 µM

SMILES | IC50
CC(C)[C@H](Nc1ccnc2[nH]ccc12)c1ccc2c(c1)S(=O)(=O)CCC2 | > 99.5 µM
Cc1ccc(-c2cc3c(N[C@@H](c4ccc5c(c4)OCCO5)C(C)C)ncnc3[nH]2)o1 | 40.6 µM and 37.6 µM
COc1ccc([C@@H](CC(=O)O)NC(=O)c2ccc(NC(=O)NC3CC3)cc2)cc1 | 57.5 µM and 37.8 µM
Cc1ncc(-c2cc3c(N[C@@H](c4ccc5c(c4)OCCO5)C(C)C)ncnc3[nH]2)cn1 | 0.479 µM and 0.585 µM
O=C(O)C[C@@H](NC(=O)c1ncnc2[nH]ccc12)c1ccc(Nc2nnc(C3CC3)o2)cc1 | 3.78 µM and 4.55 µM
Cc1[nH]c2ncnc(NC(=O)[C@@H]3CCO[C@@H]3C)c2c1C | 122 µM
Cc1noc2ncc(-c3cc4c(N[C@@H](c5ccc6c(c5)OCCO6)C(C)C)ncnc4[nH]3)cc12 | 3.73 µM and 3 µM
COc1cc(Nc2ccc([C@@H](CC(=O)O)NC(=O)c3ncnc4[nH]ccc34)cc2)n[nH]1 | 7.57 µM and 7.27 µM
CC(C)[C@H](Nc1nccc2[nH]ccc12)c1ccc2c(c1)S(=O)(=O)CCC2 | > 99.5 µM
c1ccc2c(N[C@@H](c3ccc4c(c3)OCCO4)C3CC3)ncnc2c1 | > 99.5 µM
CC(C)[C@@H](Nc1ncnc2[nH]c(-c3cccc(-n4cnnn4)c3)cc12)c1ccc2c(c1)S(=O)(=O)CCC2 | 0.241 µM
O=C(O)C[C@@H](NC(=O)c1ncnc2[nH]ccc12)c1ccc(NCC2=NO[C@@H]3COC[C@H]23)cc1 | 7.29 µM and 8.33 µM
CC(C)[C@@H](NC(=O)c1ccnc(-n2ccnc2)c1)c1ccc2c(c1)OCCO2 | > 99.5 µM
Cc1n[nH]c(C)c1-c1cc2c(N[C@@H](c3ccc4c(c3)S(=O)(=O)CCC4)C(C)C)ncnc2[nH]1 | 0.456 µM and 0.272 µM and 0.503 µM
O=C(O)C[C@@H](NC(=O)c1ccnc2cn[nH]c12)c1ccc(Br)cc1 | 10.3 µM and 9.53 µM
COc1ccc([C@@H](NC(=O)c2ncnc3[nH]ccc23)C(C)(C)c2nnn[nH]2)cc1 | 1.69 µM and 3.91 µM
CC(C)[C@@H](Nc1ncnc2[nH]c(-c3ccnc(N4CCCC4)c3)cc12)c1ccc2c(c1)OCCO2 | 16.6 µM and 17.2 µM
O=C(NCc1ccc(F)cn1)c1ncnc2[nH]ccc12 | > 99.5 µM
Cc1nn(C)cc1-c1cc2c(N[C@@H](c3ccc4c(c3)S(=O)(=O)CCC4)C(C)C)ncnc2[nH]1 | 36.8 µM and 10.8 µM
CC(C)[C@@H](Nc1ncnc2[nH]c(C(=O)NC3(CF)COC3)cc12)c1ccc2c(c1)OCCO2 | 1.25 µM and 1.74 µM
CC[C@@H]1C[C@@H](C(=O)Nc2ncnc3[nH]c(C)c(C)c23)CCO1 | > 124 µM
CC(C)[C@@H](Nc1ncnc2[nH]c(C(=O)NCc3c[nH]cn3)cc12)c1ccc2c(c1)OCCO2 | 1.15 µM and 2.57 µM

From ChEMBL document CHEMBL5441456, “ASAP - SARS-CoV-2 nsp3 macrodomain dose response” (2024)
